This note sets out measurements from publication PMC7069796 (Breast cancer research and treatment, 2020).

Each structure is given as a SMILES string.

This experiment concerns the target T1, Estrogen Receptor Alpha (ERα) (Homo sapiens, UniProt P03372, Y537S).
T1 sequence (P03372 282-595 Y537S): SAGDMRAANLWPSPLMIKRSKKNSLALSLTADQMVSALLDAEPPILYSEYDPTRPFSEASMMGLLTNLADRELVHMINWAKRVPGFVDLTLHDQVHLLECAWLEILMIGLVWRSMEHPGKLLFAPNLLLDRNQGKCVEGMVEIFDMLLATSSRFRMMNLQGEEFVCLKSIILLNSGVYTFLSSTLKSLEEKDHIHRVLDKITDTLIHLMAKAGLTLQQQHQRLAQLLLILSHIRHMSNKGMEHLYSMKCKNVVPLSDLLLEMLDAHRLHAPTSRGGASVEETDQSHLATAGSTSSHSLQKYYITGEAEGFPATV
As to the kind of experiment: LanthaScreen TR-FRET competitive binding assay with purified GST-ERα LBD.

Molecule `CCC(=C(c1ccc(/C=C/C(=O)O)cc1)c1ccc(B(O)O)cc1)c1ccccc1` [GLL398] had an IC50 of 29.5 nM.
